Source: patent US20250205192A1, “METHODS AND MATERIALS FOR TREATING PANCREATIC DISEASES AND DISORDERS” (MAYO FOUNDATION FOR MEDICAL EDUCATION AND RESEARCH, priority 2022, published 2025)
“Also recorded” adds a separate entry of the source.

Test system: male CD-1 mice
Test: Intraperitoneal GTL injection in mice, peritoneal cavity assessed for nodules, adhesions and fibrosis after 1 week
Type: in vivo
Procedure: 25% glyceryl trilinoleate (GTL) homogenous suspension in saline was prepared by heating, mixing, and sonication.
Agent 767 was dissolved in a 25% sonicated suspension of GTL in saline. This was prepared by adding […] of the 25% GTL suspension to 10 mg of 767 at room temperature. The solution was then mixed, heated gently to 37-40° C., and sonicated to ensure homogeneous emulsion.
Each experiment used 4 male CD-1 mice (35-39 grams).
Two mice were each given 0.2 mL of 25% GTL by intraperitoneal injection.
Two mice were given 0.2 mL of 767 in 25% GTL by intraperitoneal injection.
Mice were sacrificed after 1 week, and the peritoneal cavity was assessed for nodules.

Compound	adherence of duodenum, pancreas and spleen after GTL alone (en bloc excised organs from mice given GTL intraperitoneally)	peritoneal appearance (nodules and strands) after GTL alone (mice given 0.2 mL of 25% GTL by intraperitoneal injection, 1 week, compared with control mice)	pancreatitis abnormalities by blood urea nitrogen (BUN), glucose or albumin levels after GTL alone (mice given GTL intraperitoneally)	fibrosis of the wall of the nodules (Sirius red stain) after GTL alone (nodules from mice given GTL intraperitoneally)	nodules in the peritoneal cavity and in the vicinity of the pancreas (mice given 0.2 mL of 767 in 25% GTL by intraperitoneal injection, sacrificed after 1 week, compared with GTL only)	adhesions in the peritoneal cavity in spaces away from the pancreas (mice given 767 in 25% GTL intraperitoneally, 1 week)
CCCCC/C=C\C/C=C\CCCCCCCC(=O)OCC(COC(=O)CCCCCCC/C=C\C/C=C\CCCCC)OC(=O)CCCCCCC/C=C\C/C=C\CCCCC [GTL, glyceryl trilinoleate]	adherent and difficult to separate	had nodules and strands; also recorded: had clearly discernable nodules	did not exhibit pancreatitis abnormalities	strongly positive for fibrosis	–	–
CCCCCCCCCCC[C@@H](C[C@@H]1OC(=O)[C@H]1CC)OC(=O)[C@H](C)NC=O [compound 767]	–	–	–	–	did not have noticeable nodules	prevented adhesions
